Laboratory results published in patent US8952002B2, “Aminoheteroaryl compounds and preparation method and use thereof” (Shanghai Allist Pharmaceuticals, Inc., priority 2012, dated 2015).

Experiments:
[1] = molecular target: receptor tyrosine kinase c-Met (c-Met kinase domain recombination protein) (Homo sapiens (Human), UniProt P08581); assay: Enzyme linked immunosorbent assay (ELISA) of c-Met kinase activity; type: biochemical; settings: for IC50: c-Met enzyme, ELISA, read-out: IC50 (nM) mean ± SD
Chain of receptor tyrosine kinase c-Met (c-Met kinase domain recombination protein) (P08581 1078-1345): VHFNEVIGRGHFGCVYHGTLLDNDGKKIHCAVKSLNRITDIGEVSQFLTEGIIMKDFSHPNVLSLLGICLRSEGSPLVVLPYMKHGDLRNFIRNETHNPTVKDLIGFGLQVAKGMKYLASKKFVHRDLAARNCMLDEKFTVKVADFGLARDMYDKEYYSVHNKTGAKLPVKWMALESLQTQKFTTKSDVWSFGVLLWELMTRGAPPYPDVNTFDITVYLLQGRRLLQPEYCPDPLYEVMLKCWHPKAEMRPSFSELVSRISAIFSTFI
Experimental: The evaluation of the inhibition of the compound of the present invention on the activity of c-Met enzyme in molecular level may be assayed by conventional methods, one preferable evaluation method of which is enzyme-linked immunosorbent assay (ELISA). By measuring the inhibition ratio of the compounds against the activity of receptor tyrosine kinase protein c-Met enzyme, the median inhibitory concentration IC50 is calculated based on the inhibition ratios for various concentrations using the four-parameter method. The inhibition ratio for a sample (%)=(1−(OD value of a compound−OD value of the control well without enzyme)/(OD value of the negative control well−OD value of the control well without enzyme))×100%
(1) The enzyme reaction substrate Poly(Glu, Tyr) 4:1 was diluted to 20 μg/mL, 1254/well coated enzyme label plate with potassium ion-free PBS (10 mM sodium phosphate buffer, 150 mM NaCl, pH7.2-7.4), which was placed at 37° C. to allow to react for 12-16 h. The liquid in the wells was discarded. The plate was washed with 200 μL/well of T-PBS (potassium ion-free PBS containing 0.1% Tween-20) for three times (each for 5 min). The enzyme label plate was placed into a drying oven at 37° C. to dry for 1-2 h.
(2) To each well was added 50 µL of ATP solution diluted with reaction buffer (50 mM HEPES pH 7.4, 50 mM MgCl2, 0.5 mM MnCl2, 0.2 mM Na3VO4, 1 mM DTT), and to each well was added 1 μL of the compounds. When adding the test compounds, 6 concentration gradients were set for each compound (the starting concentrations and dilution times were determined according to the results of preliminary screening so as to ensure that the maximum inhibition ratio was about 80% and the minimum inhibition ratio was about 20%, and more than two concentration points were in the vicinity of 50% inhibition ratio), and then 504 of c-Met kinase domain recombination protein diluted with reaction buffer was added to initiate the reaction. Two ATP-free control wells were needed for each of the experiments. The reaction was placed on a shaking table at 37° C. (100 rpm) for 1 h. The liquid in the wells was discarded and the plate was washed with T-PBS for three times.
(3) The antibody PY99 was added at 1004/well (the antibody was diluted with T-PBS containing BSA (5 mg/mL) in 1:500). The reaction was performed on a shaking table at 37° C. for 0.5 h. The liquid in the wells was discarded and the plate was washed with T-PBS for three times.
(4) The horseradish peroxidase-labeled goat anti-mouse secondary antibody was added at 100 μL/well (the antibody was diluted with T-PBS containing BSA (5 mg/mL) in 1:2000), The reaction was performed on a shaking table at 37° C. for 0.5 h. The liquid in the wells was discarded and the plate was washed with T-PBS for three times.
(5) 2 mg/ml of OPD colour developing solution (diluted with 0.1M citric acid-sodium citrate buffer (pH=5.4) containing 0.03% H2O2) was added at 1004/well, and the reaction was performed at 25° C. for 1-10 min under protection from light.
(6) 2M H2SO4 was added at 50 μL/well to terminate the reaction, and the values were read by a microplate reader VERSAmax with adjustable wavelength, wherein the wavelength was 490 nm. Through calculation, the inhibitory IC50 values of the compounds of Example 2, 12 and 13 against the activity of receptor tyrosine kinase c-Met enzyme were obtained as: […]

[2] = test system: human colon cancer cells (HT-29); assay: SRB proliferation assay, human colon cancer cells (HT-29); type: cell-based; settings: HT-29, 72 hr, read-out: IC50 against HT-29 cells
Text: (§1) The pharmacodynamic action of the compound of the present invention in terms of inhibiting the proliferation of cancer cells may be assayed by conventional methods, one preferable evaluation method of which is Sulforhodamine B (SRB) protein staining method, which calculates the inhibition ratio of a drug against the proliferation of cancer cells through measuring the change in optical absorption value generated after the drug has influenced the cancer cells. Inhibition ratio (%)=(OD control−OD inhibitor−OD blank)/(OD control−OD blank)×100%
(§2) The median inhibitory concentration (IC50) value is obtained by the software GraphPad Prism 5 through calculation.
(§3) The human breast cancer cells in the logarithmic phase were inoculated to 96-well culture plates (180 μl/well) at a density of about 5500/well. The well for each concentration was triplicated. Solvent control wells of corresponding concentrations and apoptosis-free wells were also established. After adherent growth for 24 hr, the compounds of the present invention were added at 20 μl/well, and the cells were cultured for 72 hr under the conditions of 10% Hyclone fetal calf serum, 37° C., 5% CO2. […]
According to the experimental method of Test Example 1, the IC50 value of the compound of the present invention against HT-29 cells was calculated as: […]

[3] = test system: human breast cancer cells (MDA-MB-231); assay: SRB proliferation assay, human breast cancer cells (MDA-MB-231); type: cell-based; settings: MDA-MB-231, 72 hr, read-out: IC50 against MDA-MB-231 cells
Text: as §1
OD control: the OD value of the well of normally grown cells without the action of a drug.
OD inhibitor: the OD value of the well of cells with the action of added compounds to be screened.
OD blank: the OD value of the well of parallel control without seeding cells.
as §2
The human breast cancer cells in the logarithmic phase were inoculated to 96-well culture plates (180 μl/well) at a density of about 5500/well. The well for each concentration was triplicated. Solvent control wells of corresponding concentrations and apoptosis-free wells were also established. […]

[4] = test system: human lung cancer cells (H1975); assay: SRB proliferation assay, human lung cancer cells (H1975); type: cell-based; settings: NCI-H1975, H1975, 72 hr, read-out: IC50 against H1975 cells
Text: as §1, §2, §3
According to the experimental method of Test Example 1, the IC50 value of the compound of the present invention against H1975 cells was calculated as: […]

c-Met receptor = c-Met receptor (Homo sapiens (Human), UniProt P08581); assay: Western blot test of c-Met phosphorylation in EGF-stimulated H1975 cells; type: cell-based; settings: EGF induction, 1 μM and 5 μM, 6 hr
Chain of c-Met receptor (P08581 25-1390): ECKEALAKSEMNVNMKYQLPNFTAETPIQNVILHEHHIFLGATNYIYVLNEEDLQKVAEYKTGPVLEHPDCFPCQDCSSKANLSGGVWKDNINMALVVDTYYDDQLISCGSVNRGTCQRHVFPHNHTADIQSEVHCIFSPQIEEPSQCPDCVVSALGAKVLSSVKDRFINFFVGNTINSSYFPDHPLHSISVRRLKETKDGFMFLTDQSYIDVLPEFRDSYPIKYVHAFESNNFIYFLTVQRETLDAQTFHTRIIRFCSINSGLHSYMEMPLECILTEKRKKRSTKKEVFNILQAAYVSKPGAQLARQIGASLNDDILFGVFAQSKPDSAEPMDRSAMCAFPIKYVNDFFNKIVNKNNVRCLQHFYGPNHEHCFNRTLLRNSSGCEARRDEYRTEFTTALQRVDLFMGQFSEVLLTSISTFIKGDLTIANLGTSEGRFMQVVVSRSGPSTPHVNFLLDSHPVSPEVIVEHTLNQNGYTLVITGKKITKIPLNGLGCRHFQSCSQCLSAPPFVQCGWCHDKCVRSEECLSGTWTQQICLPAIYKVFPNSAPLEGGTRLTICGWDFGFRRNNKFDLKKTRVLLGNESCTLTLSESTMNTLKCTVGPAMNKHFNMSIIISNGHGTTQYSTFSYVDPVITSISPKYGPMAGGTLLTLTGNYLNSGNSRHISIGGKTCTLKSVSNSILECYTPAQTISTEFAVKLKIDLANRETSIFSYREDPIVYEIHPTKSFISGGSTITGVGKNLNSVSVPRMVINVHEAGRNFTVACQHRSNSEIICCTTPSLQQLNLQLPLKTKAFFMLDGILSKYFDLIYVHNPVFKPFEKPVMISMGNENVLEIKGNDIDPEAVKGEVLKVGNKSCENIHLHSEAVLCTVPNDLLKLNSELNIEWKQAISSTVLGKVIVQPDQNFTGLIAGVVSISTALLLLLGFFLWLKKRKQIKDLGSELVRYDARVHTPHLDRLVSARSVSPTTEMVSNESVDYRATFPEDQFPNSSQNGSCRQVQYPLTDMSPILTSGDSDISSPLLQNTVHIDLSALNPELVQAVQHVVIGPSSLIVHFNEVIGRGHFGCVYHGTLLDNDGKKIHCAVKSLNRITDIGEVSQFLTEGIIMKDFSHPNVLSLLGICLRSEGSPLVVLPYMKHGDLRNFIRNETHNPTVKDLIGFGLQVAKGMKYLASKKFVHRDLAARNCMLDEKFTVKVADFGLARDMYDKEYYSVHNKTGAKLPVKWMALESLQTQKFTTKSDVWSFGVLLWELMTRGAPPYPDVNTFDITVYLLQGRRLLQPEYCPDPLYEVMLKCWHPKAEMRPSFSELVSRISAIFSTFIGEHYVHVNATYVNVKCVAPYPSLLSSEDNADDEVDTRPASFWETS
Experimental: The human lung cancer cells (H1975) in the logarithmic phase were inoculated to 6-well culture plates at a density of about 4×10^5/well. The cells were adherently grown for 24 hr. Four wells were selected, wherein two wells were added with the compound of Example 2 respectively (1 μM/well and 5 μM/well). The other two wells were not added with drugs. The cells were cultured for 6 hr under the conditions of 10% Hyclone fetal calf serum, 37° C., 5% CO2. EGF was added to the above two wells and one of the drug-free well to stimulate for 15 min. After the cells were washed with cold PBS, sample loading buffer (2×SDS Lysis Buffer+1M DTT+H2O) was added to lyse the cells. The lysate of the cells was heated for 10 min at 100° C., centrifuged for 5 min at 12000 g, and the supernatant was took out. The supernatant was subjected to SDS-PAGE electrophoretic analysis. At 25 mA constant current, after wetly transferred for 2 h, the proteins were transferred to PVDF (polyvinylidine difluoride) membrance. The PVDF membrance was took out, incubated with the corresponding primary antibody (pMet) at 4° C. overnight. […] After washing with TBST for 3 times, images were developed with ECL luminescence kit, and were mounted. […]

| Average inhibition ratio (%) ([1]; 0.8 nM) | Average inhibition ratio (%) ([1]; 2 nM) | Average inhibition ratio (%) ([1]; 7 nM) | Average inhibition ratio (%) ([1]; 22 nM) | Average inhibition ratio (%) ([1]; 66 nM) | Average inhibition ratio (%) ([1]; 200 nM) | IC50 [1] [nM] | IC50 [2] [µM] | IC50 [3] [µM] | IC50 [4] [µM] | inhibition of the phosphorylation of c-Met receptor (c-Met receptor) | Compound |
| --- | --- | --- | --- | --- | --- | --- | --- | --- | --- | --- | --- |
| 31.1 | 62.2 | 67.7 | 79.7 | 88.0 | 88.2 | 1.7 ± 0.4 | – | – | – | – | C[C@@H](Oc1cc(-c2cn(C3CCNCC3)nn2)cnc1N)c1c(Cl)ccc(F)c1Cl [Example 13, (R)-3-(1-(2,6-dichloro-3-fluorophenyl)ethoxy)-5-(1-(piperidin-4-yl)-1H-1,2,3-triazol-4-yl)-2-aminopyridine] |
| 8.4 | 26.9 | 51.0 | 69.9 | 76.8 | 78.0 | 6.7 ± 2.3 | 5.26 | 9.53 | 11.7 | effectively inhibit | CC(Oc1cc(-c2cn(C3CCNCC3)nn2)cnc1N)c1c(Cl)ccc(F)c1Cl (stereo not shown) [Example 2, 3-(1-(2,6-dichloro-3-fluorophenyl)ethoxy)-5-(1-(piperidin-4-yl)-1H-1,2,3-triazol-4-yl)-2-aminopyridine] |
| 7.9 | 18.2 | 39.8 | 61.7 | 76.3 | 77.5 | 11.7 ± 2.3 | – | – | – | – | C[C@H](Oc1cc(-c2cn(C3CCNCC3)nn2)cnc1N)c1c(Cl)ccc(F)c1Cl [Example 12] |
